Values quoted from earlier work, collected in US10945961B2, “Method using enteric-coated etidronate for treating calcification, hypercalcaemia, and calcinosis of the brain and other organs” (ZY YTHERAPEUTICS LLC, priority 2017, dated 2021).
“Also recorded” adds a separate entry of the source.

Assays:
[1] = animal studies
[2] = preclinical studies; immediate-release
[3] = in vitro
[4] = test system: patients with brain calcifications (Fahr's Disease)
[5] = for plasma half-life: comparison of first- with 2nd and 3rd generation bisphosphonates

bone clearance estimates [1]	metabolism ([5]; in vivo)	amount of drug absorbed after an oral dose ([5]; oral dose, immediate-release) [%]	absorbed dose excreted in urine ([5]; within 24 hours, fraction of the absorbed dose)	SMILES	crossing of the blood-brain barrier [2]	affinity for solid-phase calcium phosphate [3]	symptomatic effect (seizures, headaches, Parkinsonian symptoms) ([4]; patients with brain calcification)	size of intracerebral calcifications ([4]; patients, finding of Loeb)	plasma half-life [5] [h]
up to 165 days	not metabolized	3	approximately half	CC(O)(P(=O)(O)O)P(=O)(O)O [disodium etidronate, 1-hydroxyethane 1,1-diphosphonic acid]	does not significantly cross the blood-brain barrier	high affinity	reduction in seizures and headaches; also recorded: symptomatic improvement of seizures, headaches, and Parkinsonian symptoms	does not reduce the size of intracerebral calcifications	6
–	–	–	–	O=P(O)(O)C(O)(Cn1ccnc1)P(=O)(O)O [zolendronic acid]	–	–	–	–	146
